Results: patent publication US10143681B2, “Factor XIa inhibitors” (MERCK SHARP & DOHME CORP., priority 2016, dated 2018)

Assays:
human Factor XIa = human Factor XIa (Homo sapiens (Human), UniProt P03951); assay: Factor XIa Assay; format: biochemical; conditions: human Factor XIa 0.04 nM, 30 min pre-incubation at 25° C., substrate GPR-AFC; read-out: FXIa IC50
How it was run: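 IC50 values were obtained from four-parameter log(inhibitor)-response fits of % inhibition, then converted to Ki using Cheng-Prusoff. GPR-AFC hydrolysis was read at 400/505 nm after 60 min at 25 °C.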

Human plasma kallikrein = Human plasma kallikrein (Homo sapiens (Human), UniProt P03952); assay: Kallikrein Assay; format: biochemical; conditions: purified Human plasma kallikrein 0.5 nM, substrate Acetyl-K-P-R-AFC; read-out: P. KLK IC50
Procedure: The effectiveness of a compound of the present invention as an inhibitor of Kallikrein can be determined using a relevant purified serine protease, and an appropriate synthetic substrate. The rate of hydrolysis of the chromogenic or fluorogenic substrate by the relevant serine protease was measured both in the absence and presence of compounds of the present invention. Assays were conducted at room temperature or at 37° C. […] A decrease in the rate of fluorescence change in the presence of inhibitor is indicative of enzyme inhibition. Such methods are known to one skilled in the art. The results of this assay are expressed as the half-maximal inhibitory concentrations (IC50), or the inhibitory constant, Ki.
Kallikrein determinations were made in 50 mM HEPES buffer at pH 7.4 containing 150 mM NaCl, 5 mM CaCl2, and 0.1% PEG 8000 (polyethylene glycol; Fisher Scientific). Determinations were made using purified Human plasma kallikrein at a final concentration of 0.5 nM (Enzyme Research Laboratories) and the synthetic substrate, Acetyl-K-P-R-AFC (Sigma # C6608) at a concentration of […].
Times required to achieve equilibration between enzyme and inhibitor were determined in control experiments. The reactions were performed under linear progress curve conditions and fluorescence increase measured at 405 Ex/510 Em nm. […] IC50 was determined by inflection point from a four parameter logistic curve fit. Ki was calculated using the Cheng Prusoff equation, Ki=IC50/(1+([S]/Km)).

[1] = tested on: Human plasma (intrinsic coagulation cascade); assay: Activated Partial Thromboplastin Time (aPTT) Assay; conditions: concentration that causes a 50% (1.5×) increase of clot time over vehicle
Procedure: Activated partial thromboplastin time (aPTT) is a clotting test that measures the intrinsic coagulation cascade. The test is performed in sodium citrated plasma. Human plasma is made by collecting blood from healthy donors of both genders into Na citrate tubes (Sarstedt coagulation 9NC/10 ml). Blood is centrifuged at 1500×g and the plasma is collected. aPTT is checked on each individual donor and those within the normal range (28-40 seconds) are pooled, aliquoted, and stored at −80 C. Test samples are prepared by spiking inhibitors or vehicle into plasma. These spiked samples are then run on a coagulation analyzer (STA-R Evolution, Stago Diagnostica). In general, the analyzer performs the following steps: Factor XII is activated by addition of ellagic acid (Pacific Hemostasis), and then time to clot is measured after re-calcification of the sample. Inhibition of FXI will cause aPTT clot time to be prolonged. The data is expressed as percent increase over vehicle control clot time and the concentration that causes a 50% (1.5×) percent increase of clot time are reported.

Chain of Human plasma kallikrein (P03952 391-638): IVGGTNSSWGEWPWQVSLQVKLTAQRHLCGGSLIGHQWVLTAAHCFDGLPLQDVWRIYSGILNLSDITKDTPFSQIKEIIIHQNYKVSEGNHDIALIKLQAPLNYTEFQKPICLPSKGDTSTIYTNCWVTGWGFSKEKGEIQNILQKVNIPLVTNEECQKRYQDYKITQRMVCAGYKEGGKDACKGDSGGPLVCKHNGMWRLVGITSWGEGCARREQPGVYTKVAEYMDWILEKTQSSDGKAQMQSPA
Chain of Human plasma kallikrein (P03952 20-390 partner): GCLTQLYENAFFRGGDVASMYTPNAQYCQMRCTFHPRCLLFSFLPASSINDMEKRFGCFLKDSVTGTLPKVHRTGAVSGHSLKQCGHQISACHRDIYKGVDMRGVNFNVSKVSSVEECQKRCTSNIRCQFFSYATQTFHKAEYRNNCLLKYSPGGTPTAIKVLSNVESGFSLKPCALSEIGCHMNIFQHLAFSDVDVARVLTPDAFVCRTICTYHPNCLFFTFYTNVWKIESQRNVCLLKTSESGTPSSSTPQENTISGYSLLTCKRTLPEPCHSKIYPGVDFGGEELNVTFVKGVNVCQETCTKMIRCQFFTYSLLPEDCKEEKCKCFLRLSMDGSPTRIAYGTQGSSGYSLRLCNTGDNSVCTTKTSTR
Chain of human Factor XIa (P03951 388-625): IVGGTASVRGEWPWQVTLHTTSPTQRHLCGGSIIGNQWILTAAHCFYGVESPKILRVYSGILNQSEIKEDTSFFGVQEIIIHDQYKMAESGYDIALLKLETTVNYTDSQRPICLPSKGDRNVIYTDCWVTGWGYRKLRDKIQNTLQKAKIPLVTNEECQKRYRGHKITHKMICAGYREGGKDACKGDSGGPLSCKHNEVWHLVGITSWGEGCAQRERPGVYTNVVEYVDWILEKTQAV
Chain of human Factor XIa (P03951 19-387 partner): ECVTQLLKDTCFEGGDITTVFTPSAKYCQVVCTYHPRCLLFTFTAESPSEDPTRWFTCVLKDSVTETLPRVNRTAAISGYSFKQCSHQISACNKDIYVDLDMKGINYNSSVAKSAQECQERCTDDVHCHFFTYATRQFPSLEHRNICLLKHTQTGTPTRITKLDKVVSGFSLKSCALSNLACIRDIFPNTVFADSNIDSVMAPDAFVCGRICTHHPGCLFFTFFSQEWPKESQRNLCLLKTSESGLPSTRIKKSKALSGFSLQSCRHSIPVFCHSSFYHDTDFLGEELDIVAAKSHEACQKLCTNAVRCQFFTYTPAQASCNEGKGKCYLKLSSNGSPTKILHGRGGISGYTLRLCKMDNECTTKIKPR

IC50 (human Factor XIa)	IC50 (Human plasma kallikrein)	SMILES	aPTT (1.5x) [1]
7.6 nM	155 nM	N#CC1(CC(C(=O)Nc2ccc(C(=O)O)cc2)c2ccc(-c3c(C(F)(F)F)ccc(Cl)c3F)c[n+]2[O-])CC1 (racemic) [Example 30, 2-(1-((4-carboxyphenyl)amino)-3-(1-cyanocyclopropyl)-1-oxopropan-2-yl)-5-(3-chloro-2-fluoro-6-(trifluoromethyl)phenyl)pyridine 1-oxide]	5.27 µM
3 nM	31 nM	N#CC1(CC(C(=O)Nc2ccc(C(=O)O)cc2)c2ccc(-c3c(C(F)F)ccc(Cl)c3F)c[n+]2[O-])CC1 (racemic) [Example 31, 2-(1-((4-carboxyphenyl)amino)-3-(1-cyanocyclopropyl)-1-oxopropan-2-yl)-5-(3-chloro-6-(difluoromethyl)-2-fluorophenyl)pyridine 1-oxide]	0.88 µM
–	47 nM	O=C(O)c1ccc(NC(=O)C(CC2CC(F)(F)C2)c2ccc(-c3c(OC(F)F)ccc(Cl)c3F)c[n+]2[O-])cc1 (racemic) [Example 50, (S)- and (R)-2-(1-((4-carboxyphenyl)amino)-3-(3,3-difluorocyclobutyl)-1-oxopropan-2-yl)-5-(3-chloro-6-(difluoromethoxy)-2-fluorophenyl)pyridine 1-oxide]	1.33 µM
–	12 nM	O=C(O)c1ccc(NC(=O)C(C[C@H]2CC[C@H](O)CC2)c2ccc(-c3c(OC(F)F)ccc(Cl)c3F)c[n+]2[O-])cc1 (single isomer, unassigned) [Example 35]	0.39 µM
–	25 nM	O=C(O)c1ccc(NC(=O)C(CC2CCC(F)(F)CC2)c2ccc(-c3c(OC(F)F)ccc(Cl)c3F)c[n+]2[O-])cc1 (single isomer, unassigned) [Example 39]	1.30 µM
–	14 nM	O=C(O)c1ccc(NC(=O)C(CC23CC(C2)C3)c2ccc(-c3c(OC(F)F)ccc(Cl)c3F)c[n+]2[O-])cc1 (single isomer, unassigned) [Example 52]	1.17 µM
–	51 nM	CC1CC1C[C@@H](C(=O)Nc1ccc(C(=O)O)cc1)c1ccc(-c2c(C(F)(F)F)ccc(Cl)c2F)c[n+]1[O-] (single isomer, unassigned) [Example 65]	1.86 µM
–	3.3 nM	COc1cc(C(CC2CC2)C(=O)Nc2ccc(C(=O)O)cc2)[n+]([O-])cc1-c1c(OC(F)F)ccc(Cl)c1F (single isomer, unassigned) [Example 70, 2-(1-((4-carboxyphenyl)amino)-3-cyclopropyl-1-oxopropan-2-yl)-5-(3-chloro-6-(difluoromethoxy)-2-fluorophenyl)-4-methoxypyridine 1-oxide]	0.82 µM
–	11 nM	COc1cc(C(CC2CC2)C(=O)Nc2ccc(C(=O)O)cc2)[n+]([O-])cc1-c1c(OC(F)F)ccc(Cl)c1F (single isomer, unassigned) [Example 71, 2-(1-((4-carboxyphenyl)amino)-3-cyclopropyl-1-oxopropan-2-yl)-5-(3-chloro-6-(difluoromethoxy)-2-fluorophenyl)-4-methoxypyridine 1-oxide]	1.24 µM
–	88 nM	O=C(O)c1ccc(NC(=O)C(CC2CC2)c2ccc(-c3c(OC(F)F)ccc(Cl)c3F)c[n+]2[O-])cc1F (single isomer, unassigned) [Example 73]	2.15 µM
–	2.7 nM	O=C(O)c1ccc(NC(=O)C(CC2CC2C(F)(F)F)c2ccc(-c3c(C(F)F)ccc(Cl)c3F)c[n+]2[O-])cc1 (single isomer, unassigned) [Example 87, 2-(1-((4-carboxyphenyl)amino)-1-oxo-3-(2-(trifluoromethyl)cyclopropyl)propan-2-yl)-5-(3-chloro-6-(difluoromethyl)-2-fluorophenyl)pyridine 1-oxide]	0.92 µM
–	3.6 nM	O=C(O)c1ccc(NC(=O)C(CC2CC2C(F)(F)F)c2ccc(-c3c(C(F)F)ccc(Cl)c3F)c[n+]2[O-])cc1 (single isomer, unassigned) [Example 88, 2-(1-((4-carboxyphenyl)amino)-1-oxo-3-(2-(trifluoromethyl)cyclo-propyl)propan-2-yl)-5-(3-chloro-6-(difluoromethyl)-2-fluorophenyl)pyridine 1-oxide]	1.43 µM
–	11.3 nM	CC1C(C)C1CC(C(=O)Nc1ccc(C(=O)O)cc1)c1ccc(-c2c(OC(F)F)ccc(Cl)c2F)c[n+]1[O-] (single isomer, unassigned) [Example 98, 2-(1-((4-carboxyphenyl)amino)-3-(2,3-dimethylcyclopropyl)-1-oxopropan-2-yl)-5-(3-chloro-6-(difluoromethoxy)-2-fluorophenyl)pyridine 1-oxide]	0.72 µM
–	92 nM	CC1C(C)C1CC(C(=O)Nc1ccc(C(=O)O)cc1)c1ccc(-c2c(OC(F)F)ccc(Cl)c2F)c[n+]1[O-] (single isomer, unassigned) [Example 99, 2-(1-((4-carboxyphenyl)amino)-3-(2,3-dimethylcyclopropyl)-1-oxopropan-2-yl)-5-(3-chloro-6-(difluoromethoxy)-2-fluorophenyl)pyridine 1-oxide]	2.78 µM
–	31.8 nM	O=C(O)c1ccc(NC(=O)C(CC2CC(F)C2)c2ccc(-c3c(OC(F)F)ccc(Cl)c3F)c[n+]2[O-])cc1 (single isomer, unassigned) [Example 102, 2-(1-((4-carboxyphenyl)amino)-3-(3-fluorocyclobutyl)-1-oxopropan-2-yl)-5-(3-chloro-6-(difluoromethoxy)-2-fluorophenyl)pyridine 1-oxide]	1 µM
–	14.6 nM	O=C(O)c1ccc(NC(=O)C(CC2CC2)c2ccc(-c3c(C(F)F)ccc(Cl)c3F)c[n+]2[O-])cc1F (single isomer, unassigned) [Example 118, 2-(1-((4-carboxy-3-fluorophenyl)amino)-3-cyclopropyl-1-oxopropan-2-yl)-5-(3-chloro-6-(difluoromethyl)-2-fluorophenyl)pyridine 1-oxide]	0.66 µM
–	2.1 nM	O=C(O)c1ccc(NC(=O)C(CC2CCC2)c2ccc(-c3c(C(F)F)ccc(Cl)c3F)c[n+]2[O-])cc1F (single isomer, unassigned) [Example 120, 2-(1-((4-carboxy-3-fluorophenyl)amino)-3-cyclobutyl-1-oxopropan-2-yl)-5-(3-chloro-6-(difluoromethyl)-2-fluorophenyl)pyridine 1-oxide]	0.75 µM
9.9 nM	69.8 nM	Cc1cc(NC(=O)C(CC2CC2)c2ccc(-c3c(C(F)F)ccc(Cl)c3F)c[n+]2[O-])ccc1C(=O)O (single isomer, unassigned) [Example 122, 2-(1-((4-carboxy-3-methylphenyl)amino)-3-cyclopropyl-1-oxopropan-2-yl)-5-(3-chloro-6-(difluoromethyl)-2-fluorophenyl)pyridine 1-oxide]	–
–	4.7 nM	O=C(O)c1ccc(NC(=O)C(CC23CC(C2)C3)c2ccc(-c3c(C(F)F)ccc(Cl)c3F)c[n+]2[O-])cc1F (single isomer, unassigned) [Example 124, 2-(3-(bicyclo[1.1.1]pentan-1-yl)-1-((4-carboxy-3-fluorophenyl)amino)-1-oxopropan-2-yl)-5-(3-chloro-6-(difluoromethyl)-2-fluorophenyl)pyridine 1-oxide]	1.76 µM
